Data on 14 molecules can be found in patent US20230003721A1, “MITOTHERAPEUTICS FOR THE TREATMENT OF BRAIN DISORDERS” (The University of Florida Research Foundation, Inc., priority 2019, published 2023).

SMILES strings stand for the structures. Counter-ions that a name gives are not always drawn.

The first assay concerns primary neurons. Description: TMRM fluorescence assay of inner mitochondrial membrane potential (ΔΨm). Conditions: primary screen, 12.5 μM, 24 h. As for the experimental part: Mitochondrial dyes. To assay the electrochemical potential across the inner mitochondrial membrane of cultured cells, we used the cell-permeant dye tetramethylrhodamine methyl ester (TMRM). For co-localization studies with Mt-GFP, TMRM was used at 20 nM on DIV14 and incubated for 30 min prior to imaging. For the orthogonal screen of compounds, TMRM was added to primary neurons on DIV13 at 10 nM, one hr prior to pintooling selected compounds, and incubated for 24 hr. Cells were washed 2× with pre-warmed fresh feeding media without B27 before measurements with a plate reader.
(§1) A CLARIOstar (BMG LABTECH) microplate reader was used to measure fluorescence of TMRM and luminescence produced from the ATP.
(§2) Mitochondrial membrane potential (Δψm) and luminescence-based ATP assays. […] Changes of ΔΨm in each well were monitored using the mitochondrial-specific, fluorescent dye TMRM (tetramethyl rhodamine, methyl ester; Molecular Probes) and measured using a CLARIOstar plate reader. […] This concentration was used throughout our experiments. […] Wells in columns 1 and 24 were not loaded with TMRM; these served to measure background signal which was subtracted from the wells to which TMRM was added. To measure the total ATP levels in neurons we utilized the CellTiter-Glo® luminescence-based ATP assay (Promega). DIV13 primary neurons were cultured for 24 h with either DMSO carrier or compound treatment, followed by removing 55 μl culture medium from each well. Plates were maintained at room temperature for 25 m, and 25 μl of CellTiter-Glo® Reagent with the substrate luciferin was then added to each well (Promega). Plates were covered with aluminum foil and shaken vigorously on an orbital shaker for 10 m at 200 rpm and maintained at room temperature for an additional 2 m in dark before being read with the plate reader set to the luminescence mode.
Compound library and hit picking rules. We screened 2400 compounds from the MicroSource Spectrum library. […] FIGS. 13A-13E provide details of the assays used from which hit picking rules were made. In essence, the average fluorescence for each compound in the TMRM assay was determined and compared to the average fluorescence for compounds in the population on each assay plate to produce a Z-score. The Z-scores for each individual compound assayed across the four replicate plates was then averaged.
For `COC(=O)C1=C(C)NC(C)=C(C(=O)OCCN(C)Cc2ccccc2)C1c1cccc([N+](=O)[O-])c1` (stereo not drawn) [nicardipine hydrochloride], the “TMRM Primary” value was determined as 4.22 Z-scores.
Same read-out and setting: as for `COCCOC(=O)C1=C(C)NC(C)=C(C(=O)OC(C)C)C1c1cccc([N+](=O)[O-])c1` (stereo not drawn) [nimodipine], the figure is 4.40 Z-scores; as for `CCCCCCCCCCC[C@@H](C[C@@H]1OC(=O)[C@H]1CCCCCC)OC(=O)[C@H](CC(C)C)NC=O` [orlistat], 3.43 Z-scores.
The same measure, in the same setting: as for `Clc1ccc(CO/N=C(\Cn2ccnc2)c2ccc(Cl)cc2Cl)c(Cl)c1` [oxiconazole nitrate], the figure is 3.08 Z-scores; as for `Fc1ccc([C@@H]2CCNC[C@H]2COc2ccc3c(c2)OCO3)cc1` [paroxetine hydrochloride], 3.53 Z-scores.
Still for that read-out and setting: as for `CC(C)(C)NC[C@H](O)COc1ccccc1C1CCCC1` [penbutolol sulfate], the figure is 3.16 Z-scores; as for `C/C(=C\CO)CCC[C@H](C)CCC[C@H](C)CCCC(C)C` [phytol], 3.42 Z-scores.
For `CC[N+]1(C)CCCC(OC(=O)C(O)(c2ccccc2)c2ccccc2)C1` (stereo not drawn) [pipenzolate bromide], the “TMRM Primary” value worked out at 3.14 Z-scores.
On the same count and under the same terms, as for `CC(=O)c1ccc2c(c1)N(CCCN1CCC(CCO)CC1)c1ccccc1S2` [piperacetazine], the figure is 5.30 Z-scores; as for `CCN1CCCC(OC(=O)C(c2ccccc2)c2ccccc2)C1` (stereo not drawn) [piperidolate hydrochloride], 3.58 Z-scores; as for `CCCCOc1ccc(OCCCN2CCOCC2)cc1` [pramoxine hydrochloride], 2.93 Z-scores.
Same read-out and setting: as for `CN(C)CCCN1c2ccccc2Sc2ccccc21` [promazine hydrochloride], the figure is 3.81 Z-scores; as for `CCCNCC(O)COc1ccccc1C(=O)CCc1ccccc1` (stereo not drawn) [propafenone hydrochloride], 3.75 Z-scores.
The same measure, in the same setting: as for `CCCOc1ccc(C(=O)OCCN(CC)CC)cc1N` [proparacaine hydrochloride], the figure is 3.43 Z-scores.

The same assay, now with this note: rescreen, 24 h.
For `COC(=O)C1=C(C)NC(C)=C(C(=O)OCCN(C)Cc2ccccc2)C1c1cccc([N+](=O)[O-])c1` (stereo not drawn) [nicardipine hydrochloride], the “TMRM Rescreen” value was −5.52 Z-scores.
As for `COCCOC(=O)C1=C(C)NC(C)=C(C(=O)OC(C)C)C1c1cccc([N+](=O)[O-])c1` (stereo not drawn) [nimodipine], the “TMRM Rescreen” value was 3.98 Z-scores.
For `CCCCCCCCCCC[C@@H](C[C@@H]1OC(=O)[C@H]1CCCCCC)OC(=O)[C@H](CC(C)C)NC=O` [orlistat], the “TMRM Rescreen” value is reported as 1.56 Z-scores.
For `Clc1ccc(CO/N=C(\Cn2ccnc2)c2ccc(Cl)cc2Cl)c(Cl)c1` [oxiconazole nitrate], the “TMRM Rescreen” value turned out to be 3.28 Z-scores.
Same read-out and setting: as for `Fc1ccc([C@@H]2CCNC[C@H]2COc2ccc3c(c2)OCO3)cc1` [paroxetine hydrochloride], the figure is 3.26 Z-scores.
The same measure, in the same setting: as for `CC(C)(C)NC[C@H](O)COc1ccccc1C1CCCC1` [penbutolol sulfate], the figure is 5.35 Z-scores; as for `C/C(=C\CO)CCC[C@H](C)CCC[C@H](C)CCCC(C)C` [phytol], 2.70 Z-scores; as for `CC[N+]1(C)CCCC(OC(=O)C(O)(c2ccccc2)c2ccccc2)C1` (stereo not drawn) [pipenzolate bromide], 7.09 Z-scores.
`CC(=O)c1ccc2c(c1)N(CCCN1CCC(CCO)CC1)c1ccccc1S2` [piperacetazine]: the “TMRM Rescreen” value turned out to be 5.01 Z-scores.
Same read-out and setting: as for `CCN1CCCC(OC(=O)C(c2ccccc2)c2ccccc2)C1` (stereo not drawn) [piperidolate hydrochloride], the figure is 3.76 Z-scores; as for `CCCCOc1ccc(OCCCN2CCOCC2)cc1` [pramoxine hydrochloride], −4.72 Z-scores; as for `CN(C)CCCN1c2ccccc2Sc2ccccc21` [promazine hydrochloride], 4.04 Z-scores.
Still for that read-out and setting: as for `CCCNCC(O)COc1ccccc1C(=O)CCc1ccccc1` (stereo not drawn) [propafenone hydrochloride], the figure is 5.04 Z-scores; as for `CCCOc1ccc(C(=O)OCCN(CC)CC)cc1N` [proparacaine hydrochloride], 4.65 Z-scores.

The next assay concerns primary neurons. Description: CellTiter-Glo luminescence-based ATP assay. Type of assay: cell-based, mouse. As to conditions: ATP orthogonal screen, 24 h. As for the experimental part:
Measurement of ATP production. The total amount of ATP produced by cultured primary neurons was measured by CellTiter-Glo Luminescent Cell Viability Assay (Promega). A recombinant luciferase enzyme catalyzed the mono-oxygenation of luciferin while hydrolyzing ATP produced by the cells and emitting light. We followed the manufacturer's protocol with primary neurons on DIV14.
as §1, §2
Compound library and hit picking rules. We screened 2400 compounds from the MicroSource Spectrum library. […] FIGS. 13A-13E provide details of the assays used from which hit picking rules were made. In essence, the average fluorescence for each compound in the TMRM assay was determined and compared to the average fluorescence for compounds in the population on each assay plate to produce a Z-score. The Z-scores for each individual compound assayed across the four replicate plates was then averaged. Because of significant well location effects (outer rows) on each assay plate (FIG. 13G), we selected primary hits as enhancing well fluorescence above the μplate by 3σplate for inner row wells (rows C-N, columns 3-22), and by 2.5σplate for outer row wells (rows A, B, O, P; columns 3-22) (FIG. 14C-D). […] All orthogonal assays employed inner wells of the 384-well plates.
With `COC(=O)C1=C(C)NC(C)=C(C(=O)OCCN(C)Cc2ccccc2)C1c1cccc([N+](=O)[O-])c1` (stereo not drawn) [nicardipine hydrochloride], the ATP is listed as −3.75 Z-scores.
On the same count and under the same terms, as for `COCCOC(=O)C1=C(C)NC(C)=C(C(=O)OC(C)C)C1c1cccc([N+](=O)[O-])c1` (stereo not drawn) [nimodipine], the figure is 6.53 Z-scores; as for `CCCCCCCCCCC[C@@H](C[C@@H]1OC(=O)[C@H]1CCCCCC)OC(=O)[C@H](CC(C)C)NC=O` [orlistat], 2.36 Z-scores; as for `Clc1ccc(CO/N=C(\Cn2ccnc2)c2ccc(Cl)cc2Cl)c(Cl)c1` [oxiconazole nitrate], 5.76 Z-scores.
`Fc1ccc([C@@H]2CCNC[C@H]2COc2ccc3c(c2)OCO3)cc1` [paroxetine hydrochloride] came in with an ATP of 4.41 Z-scores.
On the same count and under the same terms, as for `CC(C)(C)NC[C@H](O)COc1ccccc1C1CCCC1` [penbutolol sulfate], the figure is 3.39 Z-scores; as for `C/C(=C\CO)CCC[C@H](C)CCC[C@H](C)CCCC(C)C` [phytol], 4.63 Z-scores; as for `CC[N+]1(C)CCCC(OC(=O)C(O)(c2ccccc2)c2ccccc2)C1` (stereo not drawn) [pipenzolate bromide], 3.45 Z-scores.
On the same count and under the same terms, as for `CC(=O)c1ccc2c(c1)N(CCCN1CCC(CCO)CC1)c1ccccc1S2` [piperacetazine], the figure is 5.80 Z-scores; as for `CCN1CCCC(OC(=O)C(c2ccccc2)c2ccccc2)C1` (stereo not drawn) [piperidolate hydrochloride], 5.72 Z-scores; as for `CCCCOc1ccc(OCCCN2CCOCC2)cc1` [pramoxine hydrochloride], −1.97 Z-scores.
Same read-out and setting: as for `CN(C)CCCN1c2ccccc2Sc2ccccc21` [promazine hydrochloride], the figure is 4.76 Z-scores.
Molecule `CCCNCC(O)COc1ccccc1C(=O)CCc1ccccc1` (stereo not drawn) [propafenone hydrochloride] showed an ATP of 5.18 Z-scores.
Same read-out and setting: as for `CCCOc1ccc(C(=O)OCCN(CC)CC)cc1N` [proparacaine hydrochloride], the figure is 4.11 Z-scores.
